Measurements: article PMC9916969 (International Journal of Molecular Sciences, 2023)
Where two headings read alike, the source gives them in different places.

How the values were obtained:
β-amyloid (1–42) (Aβ42) = β-amyloid (1–42) (Aβ42) (Homo sapiens, UniProt P05067); experiment: Inhibition of Aβ42 self-aggregation (thioflavin T); format: biochemical; conditions: Aβ42 50 µM; compound 100 µM; 24 h, 37 °C; thioflavin T; read-out: Inhibition of Aβ42 Self-Aggregation
Method: The inhibitory activity of tested hybrids against the self-aggregation of Aβ42 was determined in vitro using the thioflavin T (ThT) fluorimetric assay. According to [84], the ThT test is ideal for preliminary screening of inhibitors of Aβ42 self-aggregation, as it enables the quantitative testing of large numbers of compounds within a relatively short time.
The influence of the inhibitory effect of the test compounds toward Aβ42 self-aggregation was determined using the thioflavin T (ThT) fluorescence method with minor modifications. This assay is based on a specific interaction between the fluorescent dye thioflavin T that binds to the β-sheets of assembled amyloid fibrils leading to a significant increase in fluorescence signal. Therefore, the decrease in ThT fluorescence correlates with the ability of the studied compounds to inhibit the formation of amyloid aggregates.
One mg of lyophilized HFIP-pretreated Aβ42 from BACHEM (Bubendorf, Switzerland) was dissolved in DMSO to obtain a stable initial solution ([Aβ42] = 500 μM); then it was aliquoted and stored at −20 °C.
For the measurement of Aβ42 self-aggregation and amyloid fibril inhibition studies by the tested compounds, aliquots of 500 μM Aβ42 stock solution were diluted in 215 mM Na-phosphate buffer pH = 8.0 to a final concentration of 50 μM Aβ42. Then the samples were incubated for 24 h at 37 °C without stirring in the absence (base level of Aβ42 self-aggregation, control) or presence of the test compounds. Myricetin and propidium iodide were used as reference compounds (positive controls). All compounds were used in a concentration of 100 µM. To quantify Aβ42 fibril formation, after incubation, 5 μM ThT in 50 mM glycine-NaOH buffer pH 8.5 was added to the solutions to a final concentration of 4 μM ThT and the fluorescence was measured at 440 nm (excitation) and 485 nm (emission). Analyses were performed with a FLUOStar Optima microplate reader (LabTech, Ortenberg, Germany). The blanks consisted of 215 mM Na-phosphate buffer, pH = 8.0, 20% (v/v) DMSO or test compounds, respectively. Each assay was run in triplicate.

[1] = ethanol, difference spectra, two bands, cited from earlier work
[2] = ethanol, difference spectra, two bands, cited from earlier work; remark: listed apart in the source
[3] = ethanol, difference spectra, two bands, cited from earlier work; remark: listed apart in the source
FRAP assay = conditions: Trolox equivalents; 60 min, 37 °C; n.a. = not active
Method: The Ferric Reducing Antioxidant Power (FRAP) test involves reduction of the ferric 2,4,6-tripyridyl-s-triazine complex [Fe(TPTZ)2]^3+ to an intense-blue ferrous complex [Fe(TPTZ)2]^2+ [92], as previously reported. Results are given as Trolox Equivalents (TE).
The FRAP (ferric reducing antioxidant power) assay proposed by Benzie and Strain [92] was modified to be performed in 96-well microplates as described in detail in [53]. The FRAP reagent contained 2.5 mL of 10 mM TPTZ (2,4,6-tris(2-pyridyl)-s-triazine, Sigma-Aldrich) solution in 40 mM HCl, 2.5 mL of 20 mM FeCl3 (Sigma-Aldrich) in distilled water and 25 mL of 0.3 M acetate buffer (pH 3.6). Aliquots of 10 µL of the test compound dissolved in DMSO (0.5 mM) were placed in quadruplicate. Absorbance was measured at a wavelength of 593 nm after 60 min incubation at 37 °C. In each case, Trolox was used as a reference compound to obtain the standard curve. The AO activity was calculated with respect to the activity of Trolox and expressed as Trolox equivalents (TE)—the values calculated as the ratio of the concentrations of Trolox and the test compound resulting in the same effect on ferric reducing activity.

[4] = Metal chelation by UV-Vis spectroscopy, Cu2+; conditions: ethanol, 25 °C; compound and metal 40 μM; difference spectra; two bands per compound
[5] = Metal chelation by UV-Vis spectroscopy, Zn2+; conditions: ethanol, 25 °C; compound and metal 40 μM; difference spectra; two bands per compound
eqBChE = target: T1, eqBChE (Equus caballus, UniProt P81908); experiment: Kinetic study of BChE inhibition (Lineweaver-Burk); format: biochemical; conditions: for αKi (non-competitive inhibition constant), eqBChE: mixed-type inhibition, mean ± SEM; for Ki: read-out: Ki (competitive inhibition constant), eqBChE
T1 construct: human erythrocyte AChE, equine serum BChE, and porcine liver CES were used; purchased Sigma-Aldrich; host or cells: equine serum (tissue-derived)
Method: Similar results were obtained for other tested compounds (Figures S61 and S62). The obtained values of inhibition constants (Ki = competitive component and αKi = non-competitive component) are shown in Table 2.
(§1) We assessed the mechanisms of AChE and BChE inhibition by performing a thorough analysis of enzyme kinetics. After a 5 min incubation at 25 °C (for temperature equilibration) with three increasing concentrations of inhibitor and six decreasing substrate concentrations, the residual enzyme activity was measured as described above for enzymatic assays.

AChE = target: T2, AChE (Homo sapiens, UniProt P22303); experiment: Kinetic study of AChE inhibition (Lineweaver-Burk); format: biochemical; conditions: for αKi (non-competitive inhibition constant), AChE: mixed-type inhibition, mean ± SEM; for Ki: read-out: Ki (competitive inhibition constant), AChE
T2 construct: human erythrocyte AChE, equine serum BChE, and porcine liver CES were used; purchased Sigma-Aldrich; host or cells: human erythrocytes (tissue-derived)
Method: as §1

[6] = absorption band at 337, 323, 308 nm

Sequence of β-amyloid (1–42) (Aβ42) (P05067 672-713 limits assumed): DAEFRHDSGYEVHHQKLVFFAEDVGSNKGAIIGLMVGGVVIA
T2 sequence (P22303 32-617 isoform P22303-2 limits assumed): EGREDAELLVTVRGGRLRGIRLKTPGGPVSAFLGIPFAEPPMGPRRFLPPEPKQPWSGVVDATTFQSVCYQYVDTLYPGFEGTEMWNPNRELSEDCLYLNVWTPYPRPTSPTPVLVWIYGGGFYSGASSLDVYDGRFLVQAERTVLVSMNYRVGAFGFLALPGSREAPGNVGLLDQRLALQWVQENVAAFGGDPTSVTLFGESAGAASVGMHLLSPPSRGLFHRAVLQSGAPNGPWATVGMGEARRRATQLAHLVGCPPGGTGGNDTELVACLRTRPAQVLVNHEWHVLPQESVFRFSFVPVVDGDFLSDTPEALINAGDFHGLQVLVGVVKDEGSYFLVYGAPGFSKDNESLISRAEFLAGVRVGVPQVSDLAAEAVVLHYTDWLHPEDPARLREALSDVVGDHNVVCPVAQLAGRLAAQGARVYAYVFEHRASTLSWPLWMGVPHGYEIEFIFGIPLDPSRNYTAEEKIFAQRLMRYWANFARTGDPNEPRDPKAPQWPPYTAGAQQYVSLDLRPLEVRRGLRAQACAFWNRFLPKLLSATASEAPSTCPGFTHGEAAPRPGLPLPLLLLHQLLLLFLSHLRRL
T1 sequence (P81908 whole entry): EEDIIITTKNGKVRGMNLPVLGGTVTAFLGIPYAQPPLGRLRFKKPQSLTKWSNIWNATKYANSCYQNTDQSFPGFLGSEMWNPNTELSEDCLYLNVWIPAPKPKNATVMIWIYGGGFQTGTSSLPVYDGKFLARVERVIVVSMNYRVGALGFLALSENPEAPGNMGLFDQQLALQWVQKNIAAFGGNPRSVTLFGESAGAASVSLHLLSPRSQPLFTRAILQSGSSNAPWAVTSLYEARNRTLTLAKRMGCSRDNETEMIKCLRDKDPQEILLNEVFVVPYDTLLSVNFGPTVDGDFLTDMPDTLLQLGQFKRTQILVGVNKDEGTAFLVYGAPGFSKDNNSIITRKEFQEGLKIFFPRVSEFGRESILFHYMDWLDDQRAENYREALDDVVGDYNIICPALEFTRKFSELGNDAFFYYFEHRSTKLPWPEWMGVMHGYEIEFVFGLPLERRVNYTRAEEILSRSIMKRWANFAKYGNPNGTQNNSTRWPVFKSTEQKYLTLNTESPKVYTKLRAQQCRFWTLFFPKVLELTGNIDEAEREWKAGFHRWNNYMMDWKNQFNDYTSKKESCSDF

| SMILES | inhibition at 100 µM (β-amyloid (1–42) (Aβ42)) [%] | Shift of Absorbance, Cu(II) ([1]; absorption band at 237 nm) [nm] | Shift of Absorbance, Cu(II) [1, 6] [nm] | Shift of Absorbance, Fe(II) ([2]; absorption band at 237 nm) [nm] | Shift of Absorbance, Fe(II) [2, 6] [nm] | Shift of Absorbance, Zn(II) ([3]; absorption band at 237 nm) [nm] | Shift of Absorbance, Zn(II) [3, 6] [nm] | FRAP, TE (FRAP assay) | Shift of Absorbance, Cu(II) [4] [nm] | Shift of Absorbance, Zn(II) [5] [nm] | αKi (non-competitive inhibition constant), eqBChE (eqBChE) [µM] | Ki (eqBChE) [nM] | αKi (non-competitive inhibition constant), AChE (AChE) [µM] | Ki (AChE) [nM] | Type of BChE inhibition (eqBChE; Lineweaver–Burk analysis) | Type of AChE inhibition (AChE; Lineweaver–Burk analysis) |
| --- | --- | --- | --- | --- | --- | --- | --- | --- | --- | --- | --- | --- | --- | --- | --- | --- |
| O=C(NCCCCCCNc1c2c(nc3ccccc13)CCCC2)c1ccccc1O [5b] | 41.5 ± 2.9 | 254 | 352 | 254 | 351 | 254 | 351 | – | – | – | – | – | – | – | – | – |
| O=C(NCCCCCCNc1c2c(nc3ccccc13)CCCC2)c1cc(F)c(F)cc1O [7b] | 24.1 ± 2.1 | – | – | – | – | – | – | 0.03 | 253 | 352 | – | – | – | – | – | – |
| O=C(NCCCCCCCCNc1c2c(nc3ccccc13)CCCC2)c1cc(F)c(F)cc1O [7c] | 37.2 ± 2.9 | – | – | – | – | – | – | 0.06 | – | – | 0.0243 ± 0.0001 | 17.3 ± 0.6 | 0.134 ± 0.009 | 125 ± 3 | – | – |
| Oc1ccccc1/C=N/CCCCCCCCNc1c2c(nc3ccccc13)CCCC2 [10c] | 80.1 ± 5.6 | – | – | – | – | – | – | – | – | – | 0.0152 ± 0.0009 | 8.4 ± 0.6 | 0.0644 ± 0.0040 | 29.9 ± 2.1 | mixed type of inhibition | mixed type of inhibition |
